The test system of one test is Tamiami virus (TAMV). The class given is cell-based.
The test system of test [1] is pseudotyped VSV expressing LASV GPC (VSVΔLASV). The class given is cell-based.
The subject of test [2] is vesicular stomatitis virus (VSV). The test is classed as cell-based.
For test [3], the system named is herpes simplex virus-1 (HSV-1, McIntyre strain). The test is classed as cell-based.
The test system of the next test is measles virus (MV). The class given is cell-based.
The test system of the next test is R18-labeled PICV. The test is classed as biochemical.
Test [4] concerns POPC LUVs or purified PICV.
The test system of the next test is PICV. The test is classed as cell-based.

`CC[C@H](C)[C@H](NC(=O)[C@H](CC(C)C)NC(=O)CNC(=O)[C@H](CC(N)=O)NC(=O)[C@@H](NC(=O)[C@@H](NC(=O)[C@H](CCCCN)NC(=O)[C@H](CCCCN)NC(=O)[C@H](Cc1ccccc1)NC(=O)[C@H](CC(C)C)NC(=O)[C@H](CC(N)=O)NC(=O)[C@@H](N)CC(C)C)[C@@H](C)O)[C@@H](C)CC)C(=O)N[C@@H](CO)C(=O)N[C@@H](CC(=O)O)C(=O)N[C@@H](CO)C(=O)N[C@@H](CC(C)C)C(=O)N[C@H](C(=O)N[C@H](C(=O)N[C@@H](CCCNC(=N)N)C(=O)O)[C@@H](C)CC)C(C)C` [Peptide 1] gave a plaque reduction in the test on Tamiami virus (TAMV) of 45.0±5.0%. This compound also showed a plaque reduction in test [1] of 63.8±13.0%. Besides, the “inhibition of plaque formation” value in test [2] is on record as “not significantly inhibited”. Moreover, the “inhibition of plaque formation” value in test [3] is “not significantly inhibited”. The “inhibition of plaque formation” value with measles virus (MV) was “not significantly inhibited”. For the same compound, the “dequenching of PICV pre-incubated at pH 5.0 prior to labeling” value in the test with R18-labeled PICV (pH 5) was “did not induce significant dequenching”. Further, the “dequenching of R18-labeled virus” value with R18-labeled PICV (pH 7.4) is on record as “extensive dequenching”. In the test with Purified PICV, the “presence of pre-fusion glycoprotein spikes (cryo-EM)” value is “Disappearance of pre-fusion glycoprotein spikes was also observed in a significant number of particles” and the “size distribution of viral particles (cryo-EM)” value is “greater shift toward larger particles”. In addition, in test [4], the DPH anisotropy result is on record as “Concentration-dependent increases in probe anisotropy values were observed to a greater degree with Peptide 1 than with Peptide 8” and the TMA-DPH anisotropy result was “increased substantially”. For the same compound, in the test on PICV, the “effect on viral infectivity” value is on record as “no significant antiviral activity or increase in viral infectivity was observed” and the “effect on viral infectivity (plaque number)” value is listed as “no increase in plaque number was observed”. Further, the “peptide concentration giving complete inhibition of plaque formation” value with PICV (CoAn 3739) is “approximately 20 μM”. Further, the IC50 (usually the concentration at which inhibition is half-maximal) with PICV (CoAn 3739) (1 h) worked out at 7.05 ± 2.19 µM.

Take PGGYALEQWAIIWAGIKAF [Peptide 8]: the DPH anisotropy entry in test [4] is recorded as “purely incidental alterations in acyl chain packing”.

Values taken from patent publication US8999925B2 (priority 2013, dated 2015).
